Results published in ChEMBL document CHEMBL3885881, “DrugMatrix”.

Species: Rattus norvegicus
Assay: DrugMatrix - Regimen: Daily Repeat
Assay type: toxicity, organism-based, Sprague-Dawley
Design: regimen Daily Repeat, gender Male, age 6-8 weeks
Details: in vivo, po, route oral GAVAGE, […]; for ABSOLUTE BASOPHIL / ABSOLUTE EOSINOPHIL / ABSOLUTE LYMPHOCYTE / ABSOLUTE MONOCYTE / ABSOLUTE SEGMENTED NEUTROPHIL / BASOPHIL / EOSINOPHIL / ERYTHROCYTE COUNT / HEMATOCRIT / HEMOGLOBIN / LEUKOCYTE COUNT / LYMPHOCYTE / MEAN CORPUSCULAR HEMOGLOBIN / MEAN CORPUSCULAR HEMOGLOBIN CONCENTRATION / MEAN CORPUSCULAR VOLUME / MONOCYTE / NEUTROPHIL / NUCLEATED RED BLOOD CELLS / PLATELET COUNT: tissue Blood; for ALANINE AMINOTRANSFERASE / ALBUMIN / ALKALINE PHOSPHATASE / ASPARTATE AMINOTRANSFERASE / BLOOD UREA NITROGEN / CARBON DIOXIDE / CHLORIDE / CHOLESTEROL / CREATINE PHOSPHOKINASE / CREATININE / GLUCOSE / LACTATE DEHYDROGENASE / LIPASE / PHOSPHORUS / POTASSIUM / SODIUM / TOTAL BILIRUBIN / TOTAL PROTEIN / URIC ACID: tissue Plasma
[1] = 500 mg/kg, 72 h, dose level Low, time 3 day
[2] = 500 mg/kg, 120 h, dose level Low, time 5 day
[3] = 1100 mg/kg, 72 h, dose level High, time 3 day
[4] = 1100 mg/kg, 120 h, dose level High, time 5 day

Compound: CCOC(=O)c1ccc(N)cc1 [BENZOCAINE]
- ABSOLUTE BASOPHIL [1]: 0 CELLS/uL
- ABSOLUTE EOSINOPHIL [1]: 229 CELLS/uL
- ABSOLUTE LYMPHOCYTE [1]: 17082.33 CELLS/uL
- ABSOLUTE MONOCYTE [1]: 210.67 CELLS/uL
- ABSOLUTE SEGMENTED NEUTROPHIL [1]: 1644.67 CELLS/uL
- BASOPHIL [1]: 0%
- EOSINOPHIL [1]: 1%
- ERYTHROCYTE COUNT [1]: 5.35 x10E6/uL
- HEMATOCRIT [1]: 35.4%
- HEMOGLOBIN [1]: 14.2 G/DL
- LEUKOCYTE COUNT [1]: 19.17 x10E3/uL
- LYMPHOCYTE [1]: 89.33%
- MEAN CORPUSCULAR HEMOGLOBIN [1]: 26.5 pg
- MEAN CORPUSCULAR HEMOGLOBIN CONCENTRATION [1]: 40.13 G/DL
- MEAN CORPUSCULAR VOLUME [1]: 66.13 fL
- MONOCYTE [1]: 1%
- NEUTROPHIL [1]: 8.67%
- NUCLEATED RED BLOOD CELLS [1]: 0 /100WBC
- PLATELET COUNT [1]: 1441 x10E3/uL
- ALANINE AMINOTRANSFERASE [1]: 64 u/L
- ALBUMIN [1]: 4.2 G/DL
- ALKALINE PHOSPHATASE [1]: 444.67 u/L
- ASPARTATE AMINOTRANSFERASE [1]: 108.33 u/L
- BLOOD UREA NITROGEN [1]: 9.67 mg/dL
- CARBON DIOXIDE [1]: 29 mmol/L
- CHLORIDE [1]: 102.33 MEQ/L
- CHOLESTEROL [1]: 59.33 mg/dL
- CREATINE PHOSPHOKINASE [1]: 648.33 u/L
- CREATININE [1]: 0.35 mg/dL
- GLUCOSE [1]: 175.67 mg/dL
- LACTATE DEHYDROGENASE [1]: 218.67 u/L
- LIPASE [1]: 12.33 u/L
- PHOSPHORUS [1]: 12.33 mg/dL
- POTASSIUM [1]: 6.58 MEQ/L
- SODIUM [1]: 144.73 MEQ/L
- TOTAL BILIRUBIN [1]: 0.2 mg/dL
- TOTAL PROTEIN [1]: 5.7 G/DL
- URIC ACID [1]: 1.73 mg/dL
- ABSOLUTE BASOPHIL [2]: 0 CELLS/uL
- ABSOLUTE EOSINOPHIL [2]: 0 CELLS/uL
- ABSOLUTE LYMPHOCYTE [2]: 16058.33 CELLS/uL
- ABSOLUTE MONOCYTE [2]: 107.33 CELLS/uL
- ABSOLUTE SEGMENTED NEUTROPHIL [2]: 2201 CELLS/uL
- BASOPHIL [2]: 0%
- EOSINOPHIL [2]: 0%
- ERYTHROCYTE COUNT [2]: 4.82 x10E6/uL
- HEMATOCRIT [2]: 32.4%
- HEMOGLOBIN [2]: 13.2 G/DL
- LEUKOCYTE COUNT [2]: 18.37 x10E3/uL
- LYMPHOCYTE [2]: 87%
- MEAN CORPUSCULAR HEMOGLOBIN [2]: 27.47 pg
- MEAN CORPUSCULAR HEMOGLOBIN CONCENTRATION [2]: 40.77 G/DL
- MEAN CORPUSCULAR VOLUME [2]: 67.4 fL
- MONOCYTE [2]: 0.67%
- NEUTROPHIL [2]: 12.33%
- NUCLEATED RED BLOOD CELLS [2]: 0.67 /100WBC
- PLATELET COUNT [2]: 1368 x10E3/uL
- ALANINE AMINOTRANSFERASE [2]: 53.67 u/L
- ALBUMIN [2]: 4.13 G/DL
- ALKALINE PHOSPHATASE [2]: 386 u/L
- ASPARTATE AMINOTRANSFERASE [2]: 98 u/L
- BLOOD UREA NITROGEN [2]: 13 mg/dL
- CARBON DIOXIDE [2]: 29 mmol/L
- CHLORIDE [2]: 104.33 MEQ/L
- CHOLESTEROL [2]: 48.33 mg/dL
- CREATINE PHOSPHOKINASE [2]: 364.67 u/L
- CREATININE [2]: 0.17 mg/dL
- GLUCOSE [2]: 150 mg/dL
- LACTATE DEHYDROGENASE [2]: 646.67 u/L
- LIPASE [2]: 11 u/L
- PHOSPHORUS [2]: 10.6 mg/dL
- POTASSIUM [2]: 6.6 MEQ/L
- SODIUM [2]: 143.27 MEQ/L
- TOTAL BILIRUBIN [2]: 0.3 mg/dL
- TOTAL PROTEIN [2]: 5.77 G/DL
- URIC ACID [2]: 1.63 mg/dL
- ABSOLUTE BASOPHIL [3]: 0 CELLS/uL
- ABSOLUTE EOSINOPHIL [3]: 55.33 CELLS/uL
- ABSOLUTE LYMPHOCYTE [3]: 17429 CELLS/uL
- ABSOLUTE MONOCYTE [3]: 386.67 CELLS/uL
- ABSOLUTE SEGMENTED NEUTROPHIL [3]: 3095.67 CELLS/uL
- BASOPHIL [3]: 0%
- EOSINOPHIL [3]: 0.33%
- ERYTHROCYTE COUNT [3]: 4.95 x10E6/uL
- HEMATOCRIT [3]: 33.3%
- HEMOGLOBIN [3]: 13.8 G/DL
- LEUKOCYTE COUNT [3]: 20.97 x10E3/uL
- LYMPHOCYTE [3]: 81.67%
- MEAN CORPUSCULAR HEMOGLOBIN [3]: 27.93 pg
- MEAN CORPUSCULAR HEMOGLOBIN CONCENTRATION [3]: 41.43 G/DL
- MEAN CORPUSCULAR VOLUME [3]: 67.4 fL
- MONOCYTE [3]: 1.33%
- NEUTROPHIL [3]: 16.67%
- NUCLEATED RED BLOOD CELLS [3]: 0.33 /100WBC
- PLATELET COUNT [3]: 1424.33 x10E3/uL
- ALANINE AMINOTRANSFERASE [3]: 72 u/L
- ALBUMIN [3]: 4.03 G/DL
- ALKALINE PHOSPHATASE [3]: 546.33 u/L
- ASPARTATE AMINOTRANSFERASE [3]: 93.33 u/L
- BLOOD UREA NITROGEN [3]: 10.33 mg/dL
- CARBON DIOXIDE [3]: 31 mmol/L
- CHLORIDE [3]: 104.33 MEQ/L
- CHOLESTEROL [3]: 61 mg/dL
- CREATINE PHOSPHOKINASE [3]: 361.67 u/L
- CREATININE [3]: 0.14 mg/dL
- GLUCOSE [3]: 138.67 mg/dL
- LACTATE DEHYDROGENASE [3]: 171 u/L
- LIPASE [3]: 11.33 u/L
- PHOSPHORUS [3]: 11.13 mg/dL
- POTASSIUM [3]: 6.37 MEQ/L
- SODIUM [3]: 144.8 MEQ/L
- TOTAL BILIRUBIN [3]: 0.3 mg/dL
- TOTAL PROTEIN [3]: 5.57 G/DL
- URIC ACID [3]: 1.27 mg/dL
- ABSOLUTE BASOPHIL [4]: 0 CELLS/uL
- ABSOLUTE EOSINOPHIL [4]: 0 CELLS/uL
- ABSOLUTE LYMPHOCYTE [4]: 14423.33 CELLS/uL
- ABSOLUTE MONOCYTE [4]: 145 CELLS/uL
- ABSOLUTE SEGMENTED NEUTROPHIL [4]: 2531.67 CELLS/uL
- BASOPHIL [4]: 0%
- EOSINOPHIL [4]: 0%
- ERYTHROCYTE COUNT [4]: 4.51 x10E6/uL
- HEMATOCRIT [4]: 32.4%
- HEMOGLOBIN [4]: 13.97 G/DL
- LEUKOCYTE COUNT [4]: 17.1 x10E3/uL
- LYMPHOCYTE [4]: 84.33%
- MEAN CORPUSCULAR HEMOGLOBIN [4]: 31.07 pg
- MEAN CORPUSCULAR HEMOGLOBIN CONCENTRATION [4]: 43.13 G/DL
- MEAN CORPUSCULAR VOLUME [4]: 71.97 fL
- MONOCYTE [4]: 1%
- NEUTROPHIL [4]: 14.67%
- NUCLEATED RED BLOOD CELLS [4]: 1.33 /100WBC
- PLATELET COUNT [4]: 1244.67 x10E3/uL
- ALANINE AMINOTRANSFERASE [4]: 56.67 u/L
- ALBUMIN [4]: 4.2 G/DL
- ALKALINE PHOSPHATASE [4]: 347.67 u/L
- ASPARTATE AMINOTRANSFERASE [4]: 84 u/L
- BLOOD UREA NITROGEN [4]: 13.33 mg/dL
- CARBON DIOXIDE [4]: 32.67 mmol/L
- CHLORIDE [4]: 102.33 MEQ/L
- CHOLESTEROL [4]: 58 mg/dL
- CREATINE PHOSPHOKINASE [4]: 180 u/L
- CREATININE [4]: 0.13 mg/dL
- GLUCOSE [4]: 145.33 mg/dL
- LACTATE DEHYDROGENASE [4]: 146.67 u/L
- LIPASE [4]: 11 u/L
- PHOSPHORUS [4]: 11.13 mg/dL
- POTASSIUM [4]: 6.79 MEQ/L
- SODIUM [4]: 143.83 MEQ/L
- TOTAL BILIRUBIN [4]: 0.37 mg/dL
- TOTAL PROTEIN [4]: 5.9 G/DL
- URIC ACID [4]: 1.53 mg/dL
